# Key:
# [1] = tested on: APP-transfected HT-22 cells; test: Western blot analysis of proteins isolated from APP-transfected HT-22 cells; type: cell-based; details: 1, 5, 10 or 20 μM
# Experimental: SH-SY5Y cells and HT-22 cells were inoculated into a culture flask containing the medium, and cultured until reaching the confluency of 70% to 75%. The pCAX vector with the APPswe/ind gene was transfected for 48 hours by using Lipofectamine 3000 (Life technologies) according to the manufacturers instructions.
# Protein concentrations were measured by using a BIORAD protein assay kit (BIORAD LABORATORIES, CA, USA). Equal amounts of protein (15 to 25 μg) were electrophoresed under the same experimental conditions using 4 to 12% BLOT™ minigel and MES SDS electrophoresis buffer (running buffer) 1×(NOVEX, LIFE TECHNOLOGIES, Kiryat Shmona, Israel), and a broad range prestained protein marker (GANGNAM STAIN™, Intron Biotechnology) was used as the control for the molecular size. To reduce nonspecific binding, the membranes used were blocked with 5% (w/v) skim milk and reacted with a primary antibody (a 1:1000 dilution) overnight at 4° C. After an appropriate reaction with a horseradish peroxidase (HRP)-binding secondary antibody, proteins were detected by using an ECL detection reagent (AMERSHAM PHARMECIA BIOTECH, Uppsala, Sweden) according to the manufacturer's instructions. The X-ray film was scanned and the optical density of the band was analyzed using a densitometry using a computer-based Sigma Gel program, version 1.0 (SPSS, Chicago, Ill., USA).
# For use as the primary antibody, anti-amyloid β (Aβ), anti-APP, anti-AdipoR1 (Adiponectin receptor 1), anti-phospho-AMPK, anti-SNAP-25 (Synaptosomal-Associated Protein 25), anti-SAP-102, anti-Syanpatophysin, phospho-Tau (Ser 413), anti-p-mTOR, anti-p-ULK1, and anti-β-actin were used.
# APP/PS1 mice = test: Thioflavin S staining / immunofluorescence analysis of amyloid plaques in brain; type: in vivo; details: IP once every 2.5 days for 45 days
# Experimental: Adiponectin receptor-activating novel peptide (5AA1) was IP administered to 10 week old APP/PS1 mice once every 2.5 days for 45 days, and then, to prepare a slide section, the brains of the mice were fixed by transcardial perfusion of ice-cold 4% paraformaldehyde. The brains were fixed in 4% paraformaldehyde for 72 hours, and then, transferred to 20% sucrose and maintained at a temperature of 4° C. for 72 hours. The brains were placed in an optimal cutting temperature (OCT) compound (A.O., USA), frozen in liquid nitrogen, and sectioned into coronal plane (14 μm) in CM 3050C cryostat (Leica, Germany). Pictures of tissue sections were taken on ProbeOn Plus charged slides (Fisher, USA).
# Immunofluorescence analysis was performed by using minor modifications of the method described in the existing study (Shah et al., 2014; Shah et al., 2015). Slides containing tissue sections were washed twice with a 0.01 M PBS solution for 15 minutes. Proteinase K was added to the tissue sections, which were then cultured at a temperature of 37° C. for 5 minutes. The tissue sections were then reacted in a blocking solution (5% normal goat serum, 0.3% Triton X-100, PBS) for 1 hour. The slides were reacted overnight with the primary antibody (the same antibody used in the ‘Western blot analysis’) and then reacted with secondary TRITC- or FITC-conjugated antibodies (diluted 1:50 in PBS; Santa Cruz) at room temperature for 90 minutes. The slides were dipped in Prolong Antifade reagent (Molecular Probe, Eugene, Oreg., USA) and stained. All stained slides were analyzed with a confocal laser scanning microscope (Flouview FV 1000). Amyloid plaques were visualized in brain slices after Thioflavin S staining. The brain slices were washed twice with 0.01 M PBS for 10 minutes, and then immersed in fresh 1% Thioflavin S solution at room temperature for 10 minutes. The brain slices were then immersed in 70% ethanol for 5 minutes, then washed twice with water, counterstained with propidium iodide (PI) and covered with cover glass.
# Morphological analysis and signals were analyzed with Image J software (open source software provided by the US NIH), and the analysis results were expressed as IOD (Integral Optical Density). The ratio of the amyloid deposit site in the proposed area was also quantified by using Image-J software.
# APP/PS1 model group = test: In vivo electrophysiology and LTP analysis (hippocampus slice); design: species or system mice; details: hippocampus slice CA1, after pairing stimuli, treated APP/PS1 model group
# Experimental: A hippocampus slice was prepared from adult mice to examine the CA1 circuit from the cross-sectional schaffer collateral (SC) input in the hippocampus slice ([…] thickness). Briefly, after anesthetizing the mice with isoflurane, the brains were quickly cooled by transcardiac perfusion with ice-cold cross-cerebrospinal fluid (CSF). After the brain was removed, the brains were stored in ice-cold sucrose-artificial CSF. A coronal section was cultured in artificial CSF at a temperature of 35° C. for 30 minutes, and cultured in artificial CSF at room temperature (23° C. to 25° C.) for 1 to 4 hours before being transferred to the recording chamber. […]
# LTP experiments were performed at 27° C. to 29° C. […] Stimulation was applied to the shaper-side branch (SC) pathway using a concentrated bipolar electrode located at […] from the soma of the recorded cells. […] In the LTP experiment, baseline EPSCs were measured for 3 min before applying the pairing stimuli (2 Hz, 2-minute stimulation, and post-synaptic depolarization to 0 mV). […]
substance,measurement,setting,value
RGPCG (adiponectin receptor-activating peptide) [5AA1],expression of AdipoR1 protein,[1],expressed more
same,expression of p-AMPK protein,[1],expressed more
same,expression level of amyloid β (Aβ),[1]; normalized with β-actin,significantly reduced
same,expression level of β-amyloid precursor protein (APP),[1]; normalized with β-actin,significantly reduced
same,amyloid β plaque in the cortex and hippocampus of the brain,APP/PS1 mice,remarkably reduced
same,level of EPSC enhancement (LTP),APP/PS1 model group,almost the same as that of the normal group
